Structures can show the parent of a compound that is named as a salt.
How the values were obtained:
[1] = Solubility of Omecamtiv mecarbil salts in water solution (aqueous buffer) at different pH; format: physicochemical; settings: for Category of solubility (Descriptive Term): USP / Ph. Eur. descriptive terms; for Solubility in comparison with Omecamtiv mecarbil dihydrochloride monohydrate salt: water solution at pH 1.2, 4.5 and 6.8
Protocol: The solubility of prepared salts was tested in water solution at different pH (1.2, 4.5 and 6.8) and compared to Omecamtiv mecarbil dihydrochloride monohydrate salt prepared according to a procedure disclosed in WO2006009726 application. It can be concluded that solubilities of Omecamtiv mecarbil maleic acid salt, Form A, Omecamtiv mecarbil fumaric acid (1:1), Form I, Omecamtiv mecarbil malonic acid (1:1), Form I, Omecamtiv mecarbil adipic acid (1:1.5), Form I, Omecamtiv mecarbil sulfuric acid (1:1), Forms I, II and III salts are lower in comparison with Omecamtiv mecarbil dihydrochloride monohydrate salt.

[2] = Solid form stability when kept at elevated temperature and relative humidity; format: physicochemical; settings: 70% to 100% relative humidity, between 20 and 40 days
Protocol: The Form II can be characterized by XRPD pattern having 2θ values 5.0°, 9.3° and 16.5° degrees 2 theta (f 0.2 degrees 2 theta). The solid Form II can be also characterized by XRPD pattern having 2θ values 5.0°, 9.3°, 16.5°, 18.6° and 24.6° degrees 2 theta (±0.2 degrees 2 theta). The solid form can be further characterized by XRPD pattern described in the following table:
The Form III can be characterized by XRPD pattern having […] 14.3°, 19.3° and 25.8° degrees 2 theta (±0.2 degrees 2 theta). The solid […] can be also characterized by XRPD pattern having 2θ values 5.4°, 7.5°, 14.3°, 19.3° and 25.8° degrees 2 theta (±0.2 degrees 2 theta). The solid form can be further characterized by XRPD pattern described in the following table: […]

Row | Category of solubility (Descriptive Term) ([1]; aqueous buffer pH 1.2) | Category of solubility (Descriptive Term) ([1]; aqueous buffer pH 4.5) | Category of solubility (Descriptive Term) ([1]; aqueous buffer pH 6.8) | Solubility in comparison with Omecamtiv mecarbil dihydrochloride monohydrate salt ([1]; listed as Omecamtiv mecarbil sulfuric acid (1:1), Forms I, II and III) | Solubility in comparison with Omecamtiv mecarbil dihydrochloride monohydrate salt ([1]; Form I) | Solubility in comparison with Omecamtiv mecarbil dihydrochloride monohydrate salt ([1]; Form A) | Compound | Solid form transformation on storage ([2]; temperature between 40° C. and 70° C.) | Solid form transformation on storage ([2]; temperature between 40° C. and 80° C.)
1 | Sparingly soluble ((10-33 mg/mL)) | Sparingly soluble ((10-33 mg/mL)) | Sparingly soluble ((10-33 mg/mL)) | lower |  |  | COC(=O)N1CCN(Cc2cccc(NC(=O)Nc3ccc(C)nc3)c2F)CC1 [Salt with sulfuric acid (1:1), Forms I, II and III] [Omecamtiv mecarbil sulfuric acid salt] |  | 
2 | Freely soluble ((100-1000 mg/mL)) | Freely soluble ((100-1000 mg/mL)) | Freely soluble ((100-1000 mg/mL)) |  |  |  | COC(=O)N1CCN(Cc2cccc(NC(=O)Nc3ccc(C)nc3)c2F)CC1 [Salt with HC1, Omecamtiv mecarbil dihydrochloride monohydrate salt, reference compound] |  | 
3 | Sparingly soluble ((10-33 mg/mL)) | Sparingly soluble ((10-33 mg/mL)) | Very slightly soluble ((0.1-1 mg/mL)) |  | lower |  | COC(=O)N1CCN(Cc2cccc(NC(=O)Nc3ccc(C)nc3)c2F)CC1 [Salt with malonic acid (1:1), Form I, Omecamtiv mecarbil malonic acid (1:1) salt] |  | 
4 | Freely soluble ((100-1000 mg/mL)) | Freely soluble ((100-1000 mg/mL)) | Freely soluble ((100-1000 mg/mL)) |  | comparable |  | COC(=O)N1CCN(Cc2cccc(NC(=O)Nc3ccc(C)nc3)c2F)CC1 [Salt with fumaric acid (1:2), Form I, Omecamtiv mecarbil fumaric acid (1:2) salt] |  | 
5 | Sparingly soluble ((10-33 mg/mL)) | Sparingly soluble ((10-33 mg/mL)) | Very slightly soluble ((0.1-1 mg/mL)) |  |  | lower | COC(=O)N1CCN(Cc2cccc(NC(=O)Nc3ccc(C)nc3)c2F)CC1 [Salt with maleic acid, Form A, Omecamtiv mecarbil maleic acid salt] |  | 
6 | Very slightly soluble ((0.1-1 mg/mL)) | Sparingly soluble ((10-33 mg/mL)) | Sparingly soluble ((10-33 mg/mL)) |  | lower |  | COC(=O)N1CCN(Cc2cccc(NC(=O)Nc3ccc(C)nc3)c2F)CC1 [Salt with fumaric acid (1:1), Form I, Omecamtiv mecarbil fumaric acid (1:1) salt] | transformed to Omecamtiv mecarbil fumaric acid (1:1), Form II | 
7 |  |  |  |  |  |  | COC(=O)N1CCN(Cc2cccc(NC(=O)Nc3ccc(C)nc3)c2F)CC1 [Omecamtiv mecarbil sulfuric acid salt] |  | transformed to Omecamtiv mecarbil sulfuric acid salt, Form III
8 | Sparingly soluble ((10-33 mg/mL)) | Sparingly soluble ((10-33 mg/mL)) | Very slightly soluble ((0.1-1 mg/mL)) |  | lower |  | COC(=O)N1CCN(Cc2cccc(NC(=O)Nc3ccc(C)nc3)c2F)CC1 [Salt with adipic acid (1:1.5), Form I, Omecamtiv mecarbil adipic acid (1:1.5) salt] |  | 

— patent publication US20220340542A1, “SALTS OF OMECAMTIV MECARBIL AND SOLID FORMS THEREOF” (SYNTHON B.V., priority 2019, published 2022)
